Reference: patent US12686673B2 (Blueprint Medicines Corporation, priority 2020, dated 2026)
Where a name gives a salt, the structure may show the parent alone. Read-outs that look alike come from different tables or passages of the source.

Experiments:
Assay type in all cases: cell-based
[1] = test system: A431 cells; assay: Cellular proliferation (Alamar Blue) assay, A431
[2] = target: EGFR(D770_N771insSVD) expressing Ba/F3 stable cell line (Homo sapiens, UniProt P00533, DUP768-770, cells depend on it); assay: Cellular proliferation (Alamar Blue) assay, EGFR D770_N771insSVD Ba/F3; conditions: 72 hr, read-out: D770 IC50
Sequence of EGFR(D770_N771insSVD) expressing Ba/F3 stable cell line (P00533 with tags, fused parts or gaps DUP768-770): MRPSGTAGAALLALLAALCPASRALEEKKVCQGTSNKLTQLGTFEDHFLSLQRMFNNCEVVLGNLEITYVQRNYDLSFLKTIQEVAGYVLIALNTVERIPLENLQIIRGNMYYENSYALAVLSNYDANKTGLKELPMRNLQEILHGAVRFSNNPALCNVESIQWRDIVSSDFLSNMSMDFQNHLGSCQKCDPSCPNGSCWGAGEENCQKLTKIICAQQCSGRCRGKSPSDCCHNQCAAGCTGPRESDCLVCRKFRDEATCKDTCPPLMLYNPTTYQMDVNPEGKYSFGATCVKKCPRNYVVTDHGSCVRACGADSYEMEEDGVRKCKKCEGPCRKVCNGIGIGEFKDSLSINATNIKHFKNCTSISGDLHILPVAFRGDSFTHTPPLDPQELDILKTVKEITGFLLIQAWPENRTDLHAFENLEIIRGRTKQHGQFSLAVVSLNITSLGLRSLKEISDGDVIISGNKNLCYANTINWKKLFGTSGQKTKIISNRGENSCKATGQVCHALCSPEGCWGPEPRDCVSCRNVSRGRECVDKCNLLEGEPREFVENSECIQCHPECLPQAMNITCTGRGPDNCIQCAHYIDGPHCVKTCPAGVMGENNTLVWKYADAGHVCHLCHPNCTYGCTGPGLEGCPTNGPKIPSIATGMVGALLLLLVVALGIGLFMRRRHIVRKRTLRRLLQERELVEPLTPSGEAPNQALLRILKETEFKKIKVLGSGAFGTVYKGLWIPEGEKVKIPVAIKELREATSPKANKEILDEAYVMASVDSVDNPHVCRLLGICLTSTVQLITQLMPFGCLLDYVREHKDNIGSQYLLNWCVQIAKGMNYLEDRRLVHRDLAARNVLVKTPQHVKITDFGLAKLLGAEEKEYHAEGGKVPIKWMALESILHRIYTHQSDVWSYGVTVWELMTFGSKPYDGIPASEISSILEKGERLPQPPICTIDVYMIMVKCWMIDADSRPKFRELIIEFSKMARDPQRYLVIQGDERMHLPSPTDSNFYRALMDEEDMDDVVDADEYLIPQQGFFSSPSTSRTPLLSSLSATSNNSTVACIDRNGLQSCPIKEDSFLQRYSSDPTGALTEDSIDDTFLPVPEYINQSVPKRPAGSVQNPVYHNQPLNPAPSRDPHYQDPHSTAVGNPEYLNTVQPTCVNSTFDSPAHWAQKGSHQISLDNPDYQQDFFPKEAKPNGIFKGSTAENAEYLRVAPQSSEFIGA
Summary of the method: (§1)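 Each stable Ba/F3 line, cultured in RPMI with 10% FBS at 15,000 cells per well, received a threefold compound series (final top 10 μM, bottom 0.0005 μM) for 72 hr at 37 degree Celsius, then Alamar Blue for 3 h.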

[3] = target: EGFR (A767_dupASV) expressing Ba/F3 stable cell line (Homo sapiens, UniProt P00533, DUP767-769, cells depend on it); assay: Cellular proliferation (Alamar Blue) assay, EGFR A767_dupASV Ba/F3; conditions: 72 hr, read-out: A767 IC50
Sequence of EGFR (A767_dupASV) expressing Ba/F3 stable cell line (P00533 with tags, fused parts or gaps DUP767-769): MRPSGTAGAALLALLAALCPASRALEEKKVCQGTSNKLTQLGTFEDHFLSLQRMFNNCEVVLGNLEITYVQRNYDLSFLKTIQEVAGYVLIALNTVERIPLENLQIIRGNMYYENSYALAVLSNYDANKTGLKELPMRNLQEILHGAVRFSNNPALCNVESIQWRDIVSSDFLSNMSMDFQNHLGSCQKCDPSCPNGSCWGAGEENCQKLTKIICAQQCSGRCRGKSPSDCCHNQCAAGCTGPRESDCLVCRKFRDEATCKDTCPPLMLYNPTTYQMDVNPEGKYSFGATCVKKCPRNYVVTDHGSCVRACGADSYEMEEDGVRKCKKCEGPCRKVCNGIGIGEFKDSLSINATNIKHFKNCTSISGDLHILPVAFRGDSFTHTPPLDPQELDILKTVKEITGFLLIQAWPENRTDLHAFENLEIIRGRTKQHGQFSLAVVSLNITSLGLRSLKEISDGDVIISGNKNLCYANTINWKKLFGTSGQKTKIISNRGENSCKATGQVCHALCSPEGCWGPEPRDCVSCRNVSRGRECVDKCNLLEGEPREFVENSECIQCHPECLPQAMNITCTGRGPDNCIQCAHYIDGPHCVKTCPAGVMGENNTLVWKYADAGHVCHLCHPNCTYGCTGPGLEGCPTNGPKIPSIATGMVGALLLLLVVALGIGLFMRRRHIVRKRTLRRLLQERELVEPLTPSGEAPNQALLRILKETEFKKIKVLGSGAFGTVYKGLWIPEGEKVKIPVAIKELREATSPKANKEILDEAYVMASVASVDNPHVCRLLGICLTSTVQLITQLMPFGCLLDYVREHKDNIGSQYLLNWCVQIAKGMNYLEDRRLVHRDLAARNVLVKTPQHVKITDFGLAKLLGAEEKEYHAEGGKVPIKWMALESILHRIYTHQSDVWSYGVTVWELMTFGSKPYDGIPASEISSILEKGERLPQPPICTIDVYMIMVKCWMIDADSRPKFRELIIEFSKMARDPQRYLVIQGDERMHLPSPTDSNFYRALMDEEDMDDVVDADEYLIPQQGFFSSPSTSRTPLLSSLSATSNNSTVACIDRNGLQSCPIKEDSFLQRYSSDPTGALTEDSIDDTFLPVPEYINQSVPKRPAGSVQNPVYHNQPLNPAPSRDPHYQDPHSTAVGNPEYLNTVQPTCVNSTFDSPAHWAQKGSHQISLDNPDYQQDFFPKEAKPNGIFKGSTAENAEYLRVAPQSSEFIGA
Summary of the method: as §1

[4] = target: EGFR (H773insNPH) expressing Ba/F3 stable cell line (Homo sapiens, UniProt P00533, DUP771-773, cells depend on it); assay: Cellular proliferation (Alamar Blue) assay, EGFR H773insNPH Ba/F3; conditions: 72 hr, read-out: NPH IC50
Sequence of EGFR (H773insNPH) expressing Ba/F3 stable cell line (P00533 with tags, fused parts or gaps DUP771-773): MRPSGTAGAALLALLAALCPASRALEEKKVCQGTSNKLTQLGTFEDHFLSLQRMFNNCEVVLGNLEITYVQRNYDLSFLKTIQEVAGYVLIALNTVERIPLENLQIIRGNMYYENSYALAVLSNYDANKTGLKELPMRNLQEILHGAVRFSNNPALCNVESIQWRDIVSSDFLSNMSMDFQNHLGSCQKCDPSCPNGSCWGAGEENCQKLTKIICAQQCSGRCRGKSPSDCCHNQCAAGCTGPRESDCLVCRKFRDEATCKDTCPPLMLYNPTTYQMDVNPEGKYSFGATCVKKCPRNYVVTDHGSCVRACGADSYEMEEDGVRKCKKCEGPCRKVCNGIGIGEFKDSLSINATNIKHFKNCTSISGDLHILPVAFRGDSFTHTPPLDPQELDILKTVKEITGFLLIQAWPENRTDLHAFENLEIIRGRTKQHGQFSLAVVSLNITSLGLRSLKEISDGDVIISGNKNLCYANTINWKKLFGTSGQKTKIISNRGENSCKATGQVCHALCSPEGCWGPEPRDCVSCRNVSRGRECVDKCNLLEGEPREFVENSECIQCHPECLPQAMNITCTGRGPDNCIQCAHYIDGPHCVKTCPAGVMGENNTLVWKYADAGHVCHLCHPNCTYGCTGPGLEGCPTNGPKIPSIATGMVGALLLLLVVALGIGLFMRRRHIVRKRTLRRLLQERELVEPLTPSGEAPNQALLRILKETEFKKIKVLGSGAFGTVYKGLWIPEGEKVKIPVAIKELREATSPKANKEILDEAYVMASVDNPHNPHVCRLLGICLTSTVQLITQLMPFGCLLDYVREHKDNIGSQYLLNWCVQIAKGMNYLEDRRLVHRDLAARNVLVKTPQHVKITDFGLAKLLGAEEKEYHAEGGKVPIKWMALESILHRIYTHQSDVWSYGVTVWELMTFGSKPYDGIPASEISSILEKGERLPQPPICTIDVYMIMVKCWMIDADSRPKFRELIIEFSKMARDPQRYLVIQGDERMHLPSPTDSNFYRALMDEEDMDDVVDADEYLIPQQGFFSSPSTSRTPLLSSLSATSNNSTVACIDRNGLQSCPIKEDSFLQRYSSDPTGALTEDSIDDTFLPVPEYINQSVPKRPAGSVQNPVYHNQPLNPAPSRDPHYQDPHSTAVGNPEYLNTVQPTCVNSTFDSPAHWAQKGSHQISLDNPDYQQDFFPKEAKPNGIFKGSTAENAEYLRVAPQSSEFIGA
Description: • 1. EGFR(D770_N771insSVD) expressing Ba/F3 stable cell line • 2. EGFR (A767_dupASV) expressing Ba/F3 stable cell line • 3. A431 cells • 4. EGFR (H773insNPH) expressing Ba/F3 stable cell line • 5. HER2 (A775_G776insYVMA) expressing Ba/F3 stable cell line Assay Procedure: • 1. Seed cells at 5000 for A431 and 15,000 cells for Ba/F3 in 100 μL/well in complete media (for A431: DMEM with […] and for Ba/F3 cells: RPMI with 10% FBS) in 96-well tissue culture plate. Leave outer wells without cells for background measurements. Incubate at 37 degree Celsius in […] humidified incubator for 16-18 hours. • 2. Add 0.025 ml of 5× concentration compound dilution or DMSO control. Final compound concentration range is 10-0.0005 μM prepared in 3-fold serial dilutions. Incubate for 72 hr at 37 degree Celsius in […] humidified incubator. • 3. Add 0.0125 ml Alamar Blue™ reagent to each well with multi-channel pipette and tap gently on each side of the plate to mix. Incubate for 3 hours at 37 degree Celsius in 5% CO2 humidified incubator. • 4. […] Data analysis was performed using XLfit 5.5.0.5.

[5] = target: HER2 (A775_G776insYVMA) expressing Ba/F3 stable cell line (Homo sapiens, UniProt P04626, DUP772-775, cells depend on it); assay: Cellular proliferation (Alamar Blue) assay, HER2 A775_G776insYVMA Ba/F3; conditions: 72 hr, read-out: YVMA IC50
Sequence of HER2 (A775_G776insYVMA) expressing Ba/F3 stable cell line (P04626 with tags, fused parts or gaps DUP772-775): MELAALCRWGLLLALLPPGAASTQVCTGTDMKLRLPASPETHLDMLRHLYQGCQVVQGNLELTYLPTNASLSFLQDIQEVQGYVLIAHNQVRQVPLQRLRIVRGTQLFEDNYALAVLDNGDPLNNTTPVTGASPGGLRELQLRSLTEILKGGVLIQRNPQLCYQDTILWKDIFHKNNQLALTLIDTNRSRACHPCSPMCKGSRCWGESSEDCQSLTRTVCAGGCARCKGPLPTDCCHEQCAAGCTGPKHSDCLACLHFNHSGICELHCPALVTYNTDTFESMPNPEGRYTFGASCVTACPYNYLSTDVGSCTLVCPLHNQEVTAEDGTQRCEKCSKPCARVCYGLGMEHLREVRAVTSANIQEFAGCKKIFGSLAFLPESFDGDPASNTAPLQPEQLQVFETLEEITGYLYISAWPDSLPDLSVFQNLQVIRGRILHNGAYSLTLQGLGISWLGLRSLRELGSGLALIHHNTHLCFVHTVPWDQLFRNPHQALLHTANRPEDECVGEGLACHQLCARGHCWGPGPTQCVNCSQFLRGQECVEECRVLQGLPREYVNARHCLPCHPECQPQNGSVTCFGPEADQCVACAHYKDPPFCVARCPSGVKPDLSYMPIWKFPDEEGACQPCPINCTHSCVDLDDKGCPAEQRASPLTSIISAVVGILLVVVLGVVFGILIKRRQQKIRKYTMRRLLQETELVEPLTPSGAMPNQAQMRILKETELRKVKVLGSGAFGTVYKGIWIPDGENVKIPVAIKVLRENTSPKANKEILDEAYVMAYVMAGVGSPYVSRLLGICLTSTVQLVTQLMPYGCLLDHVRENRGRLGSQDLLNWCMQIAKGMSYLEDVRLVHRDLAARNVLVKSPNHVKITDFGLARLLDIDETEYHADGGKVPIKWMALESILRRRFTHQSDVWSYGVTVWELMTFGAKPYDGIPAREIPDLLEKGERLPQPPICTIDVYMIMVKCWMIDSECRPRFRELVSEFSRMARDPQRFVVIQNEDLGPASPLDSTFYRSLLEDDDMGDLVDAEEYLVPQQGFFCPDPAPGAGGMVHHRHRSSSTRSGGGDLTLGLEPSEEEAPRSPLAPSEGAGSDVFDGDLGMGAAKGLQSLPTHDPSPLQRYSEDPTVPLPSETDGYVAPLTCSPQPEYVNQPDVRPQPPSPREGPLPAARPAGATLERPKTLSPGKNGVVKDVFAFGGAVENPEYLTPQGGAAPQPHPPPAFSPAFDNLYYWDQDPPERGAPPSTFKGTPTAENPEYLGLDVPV
Summary of the method: as §1

[6] = Homo sapiens, A-431; A431 cells, Alamar Blue, 72 hr; read-out: A431 IC50
[7] = Homo sapiens, A-431; A431 cells, 72 hr, Alamar Blue; read-out: A431 IC50

SMILES | IC50 [1, 6] | GI50 [2] | GI50 [3] | GI50 [4] | GI50 [5] | IC50 [1, 7]
C=CC(=O)Nc1ccc(F)c(Nc2nc(Nc3cnn(C4CCN(C)CC4)c3)ncc2Cl)c1 [Compound 14, N-(3-((5-chloro-2-((1-(1-methylpiperidin-4-yl)-1H-pyrazol-4-yl)amino)pyrimidin-4-yl)amino)-4-fluorophenyl)acrylamide] | 1830 nM | 320 nM | 170 nM | 192 nM | 756 nM | 
C=CC(=O)Nc1ccc(F)c(Nc2nc(Nc3cnn(C)c3)ncc2-c2ccc(C(F)(F)F)cc2)c1 [Compound 37, N-(4-fluoro-3-((2-((1-methyl-1H-pyrazol-4-yl)amino)-5-(4-(trifluoromethyl)phenyl)pyrimidin-4-yl)amino)phenyl)acrylamide] | 185 nM | 34 nM | 73 nM | 85 nM | 974 nM | 
C=CC(=O)Nc1ccc(F)c(Nc2nc(Nc3ccc(CN(C)C)cc3)ncc2-c2ccc(C(F)(F)F)cc2)c1 [Compound 45, N-(3-((2-((4-((dimethylamino)methyl)phenyl)amino)-5-(4-(trifluoromethyl)phenyl)pyrimidin-4-yl)amino)-4-fluorophenyl)acrylamide trifluoroacetate] | 27 nM | 105 nM | 238 nM | 149 nM | 134 nM | 
COc1cc(N2CCCCC2)ccc1Nc1ncc(C(=O)N(C)c2ccccc2)c(Nc2cccc(NC(=O)/C=C/CN(C)C)c2)n1 [Compound 52, (E)-4-((3-(4-(dimethylamino)but-2-enamido)phenyl)amino)-2-((2-methoxy-4-(piperidin-1-yl)phenyl)amino)-N-methyl-N-phenylpyrimidine-5-carboxamide] | 6560 nM | 3260 nM | 982 nM | > 10000 nM |  | 
CN(C)C/C=C/C(=O)Nc1cccc(Nc2nc(Nc3cn(C)nc3Cl)ncc2-c2ccc(C(F)(F)F)cc2)c1 [Compound 53, (E)-N-(3-((2-((3-chloro-1-methyl-1H-pyrazol-4-yl)amino)-5-(4-(trifluoromethyl)phenyl)pyrimidin-4-yl)amino)phenyl)-4-(dimethylamino)but-2-enamide] | 7300 nM | 873 nM | 1020 nM | 1890 nM |  | 
CN(C)C/C=C/C(=O)Nc1cccc(Nc2nc(Nc3cn(C)nc3Cl)ncc2C(F)(F)F)c1 [Compound 54, (E)-N-(3-((2-((3-chloro-1-methyl-1H-pyrazol-4-yl)amino)-5-(trifluoromethyl)pyrimidin-4-yl)amino)phenyl)-4-(dimethylamino)but-2-enamide] | 4530 nM | 296 nM | 1040 nM | 380 nM |  | 
C=CC(=O)Nc1ccc(F)c(Nc2nc(Nc3cnn(C)c3)ncc2-c2cncc(C(F)(F)F)c2)c1 [Compound 56, N-(4-fluoro-3-((2-((1-methyl-1H-pyrazol-4-yl)amino)-5-(5-(trifluoromethyl)pyridin-3-yl)pyrimidin-4-yl)amino)phenyl)acrylamide] | 34 nM |  |  | 41 nM | 92 nM | 
C=CC(=O)Nc1ccc(F)c(Nc2nc(Nc3cnn(C)c3)ncc2-c2ccc(C(F)(F)F)nc2)c1 [Compound 57, N-(4-fluoro-3-((2-((1-methyl-1H-pyrazol-4-yl)amino)-5-(6-(trifluoromethyl)pyridin-3-yl)pyrimidin-4-yl)amino)phenyl)acrylamide] | 1940 nM | 44 nM | 71 nM | 82 nM | 177 nM | 
C=CC(=O)Nc1ccc(F)c(Nc2nc(Nc3cnn(C)c3)ncc2-c2ccc(Cl)cc2)c1 [Compound 61, N-(3-((5-(4-chlorophenyl)-2-((1-methyl-1H-pyrazol-4-yl)amino)pyrimidin-4-yl)amino)-4-fluorophenyl)acrylamide] | 261 nM | 56 nM | 99 nM | 91 nM | 219 nM | 
C=CC(=O)Nc1ccc(F)c(Nc2nc(Nc3cnn(C)c3)ncc2-c2ccc(F)cc2)c1 [Compound 63, N-(4-fluoro-3-((5-(4-fluorophenyl)-2-((1-methyl-1H-pyrazol-4-yl)amino)pyrimidin-4-yl)amino)phenyl)acrylamide] | 1280 nM | 60 nM | 102 nM | 116 nM | 344 nM | 
C=CC(=O)Nc1ccc(F)c(Nc2nc(Nc3cnn(C)c3)ncc2-c2ccc(C)nc2)c1 [Compound 66, N-(4-fluoro-3-((2-((1-methyl-1H-pyrazol-4-yl)amino)-5-(6-methylpyridin-3-yl)pyrimidin-4-yl)amino)phenyl)acrylamide] | 138 nM |  | 35 nM | 73 nM | 50 nM | 
C=CC(=O)Nc1ccc(F)c(Nc2nc(Nc3cnn(C)c3)ncc2-c2cncc(C)c2)c1 [Compound 67, N-(4-fluoro-3-((2-((1-methyl-1H-pyrazol-4-yl)amino)-5-(5-methylpyridin-3-yl)pyrimidin-4-yl)amino)phenyl)acrylamide] | 120 nM | 30 nM | 36 nM | 41 nM | 26 nM | 
C=CC(=O)Nc1ccc(F)c(Nc2nc(Nc3cnn(C)c3)ncc2-c2ccnc(OC)c2)c1 [Compound 68, N-(4-fluoro-3-((5-(2-methoxypyridin-4-yl)-2-((1-methyl-1H-pyrazol-4-yl)amino)pyrimidin-4-yl)amino)phenyl)acrylamide] | 223 nM | 101 nM | 108 nM | 107 nM | 128 nM | 
C=CC(=O)Nc1ccc(F)c(Nc2nc(Nc3cnn(C)c3)ncc2-c2cncc(Cl)c2)c1 [Compound 102, N-(3-((5-(5-chloropyridin-3-yl)-2-((1-methyl-1H-pyrazol-4-yl)amino)pyrimidin-4-yl)amino)-4-fluorophenyl)acrylamide] | 168 nM | 35 nM | 31 nM | 48 nM |  | 
C=CC(=O)Nc1ccc(F)c(Nc2nc(Nc3cnn(C)c3)ncc2-c2cncc(C(F)F)c2)c1 [Compound 110, N-(3-((5-(5-(difluoromethyl)pyridin-3-yl)-2-((1-methyl-1H-pyrazol-4-yl)amino)pyrimidin-4-yl)amino)-4-fluorophenyl)acrylamide] | 309 nM | 34 nM |  | 34 nM | 30 nM | 
C=CC(=O)Nc1cccc(Nc2nc(Nc3cnn(C)c3)ncc2-c2ccc(OC)nc2)c1 [Compound 118, N-(3-((5-(6-methoxypyridin-3-yl)-2-((1-methyl-1H-pyrazol-4-yl)amino)pyrimidin-4-yl)amino)phenyl)acrylamide trifluoroacetate] | 163 nM |  | 36 nM | 29 nM | 57 nM | 
C=CC(=O)Nc1ccc(F)c(Nc2nc(Nc3cnn(C)c3)ncc2-c2cccc(N(C)CCN(C)C)c2)c1 [Compound 125, N-(3-((5-(3-((2-(dimethylamino)ethyl)(methyl)amino)phenyl)-2-((1-methyl-1H-pyrazol-4-yl)amino)pyrimidin-4-yl)amino)-4-fluorophenyl)acrylamide] | > 10000 nM | > 10000 nM | > 10000 nM | > 10000 nM |  | 
C=CC(=O)Nc1ccc(F)c(Nc2nc(Nc3cnn(C)c3)ncc2-c2ccc3nccn3c2)c1 [Compound 133, N-(4-fluoro-3-((5-(imidazo[1,2-a]pyridin-6-yl)-2-((1-methyl-1H-pyrazol-4-yl)amino)pyrimidin-4-yl)amino)phenyl)acrylamide trifluoroacetate] | 158 nM | 294 nM | 388 nM | 323 nM |  | 
Cn1cc(Nc2ncc(-c3ccc(C(F)(F)F)cc3)c(Nc3cc(NC(=O)CCl)ccc3F)n2)cn1 [Compound 252, 2-chloro-N-[4-fluoro-3-({2-[(1-methyl-1H-pyrazol-4-yl)amino]-5-[4-(trifluoromethyl)phenyl]pyrimidin-4-yl}amino)phenyl]acetamide] |  | 1420 nM | 5960 nM | 2810 nM |  | 1180 nM
C=CS(=O)(=O)Nc1ccc(F)c(Nc2nc(Nc3cnn(C)c3)ncc2-c2ccc(C(F)(F)F)cc2)c1 [Compound 253, N-[4-fluoro-3-({2-[(1-methyl-1H-pyrazol-4-yl)amino]-5-[4-(trifluoromethyl)phenyl]pyrimidin-4-yl}amino)phenyl] ethene-1-sulfonamide] |  | 8450 nM | 8750 nM | > 10000 nM |  | 3980 nM
